Experimental data: ChEMBL document CHEMBL5653631, “A Potent and Selective ULK1 Inhibitor Suppresses Autophagy and Sensitizes Cancer Cells to Nutrient Stress” (iScience, 2018)
Each block holds one compound with its values, some of them ahead of it.

What was measured:
[1] = molecular target: T1, Serine/threonine-protein kinase Nek11 (Homo sapiens) (UniProt Q8NG66); assay: Inhibition of human recombinant NEK11 at 500 nM in presence of ATP by radiometric assay relative to control
T1 sequence (whole entry): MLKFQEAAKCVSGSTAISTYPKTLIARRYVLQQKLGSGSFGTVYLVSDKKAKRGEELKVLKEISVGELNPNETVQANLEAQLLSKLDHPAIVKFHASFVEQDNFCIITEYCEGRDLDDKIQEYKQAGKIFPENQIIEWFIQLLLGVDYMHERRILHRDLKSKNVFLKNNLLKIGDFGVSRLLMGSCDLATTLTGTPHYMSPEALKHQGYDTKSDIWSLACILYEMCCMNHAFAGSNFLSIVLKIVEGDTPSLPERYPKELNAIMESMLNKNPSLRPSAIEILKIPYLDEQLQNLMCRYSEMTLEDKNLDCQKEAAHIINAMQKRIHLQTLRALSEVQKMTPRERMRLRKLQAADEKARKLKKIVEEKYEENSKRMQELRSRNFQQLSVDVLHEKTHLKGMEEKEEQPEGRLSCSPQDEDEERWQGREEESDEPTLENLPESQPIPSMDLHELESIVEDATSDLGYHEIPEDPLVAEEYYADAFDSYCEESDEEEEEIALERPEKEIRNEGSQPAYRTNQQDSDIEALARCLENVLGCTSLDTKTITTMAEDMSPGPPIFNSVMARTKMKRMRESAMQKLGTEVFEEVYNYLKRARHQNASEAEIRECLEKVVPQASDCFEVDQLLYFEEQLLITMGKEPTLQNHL

[2] = molecular target: Tyrosine-protein kinase Fer (Homo sapiens) (UniProt P16591); assay: Inhibition of human recombinant FER at 500 nM related to control ULK1
[3] = molecular target: SRSF protein kinase 1 (Homo sapiens) (UniProt Q96SB4); assay: Inhibition of human recombinant SRPK1 at 500 nM related to control ULK1
[4] = molecular target: Cell division cycle 7-related protein kinase (Homo sapiens) (UniProt O00311); assay: Inhibition of human recombinant CDC7 at 500 nM related to control ULK1
[5] = molecular target: Mast/stem cell growth factor receptor Kit (Homo sapiens) (UniProt P10721); assay: Inhibition of human recombinant KIT at 500 nM in presence of ATP by radiometric assay relative to control
[6] = molecular target: T2, Serine/threonine-protein kinase haspin (Homo sapiens) (UniProt Q8TF76); assay: Inhibition of human recombinant Haspin at 15 nM related to control ULK1
T2 sequence (whole entry): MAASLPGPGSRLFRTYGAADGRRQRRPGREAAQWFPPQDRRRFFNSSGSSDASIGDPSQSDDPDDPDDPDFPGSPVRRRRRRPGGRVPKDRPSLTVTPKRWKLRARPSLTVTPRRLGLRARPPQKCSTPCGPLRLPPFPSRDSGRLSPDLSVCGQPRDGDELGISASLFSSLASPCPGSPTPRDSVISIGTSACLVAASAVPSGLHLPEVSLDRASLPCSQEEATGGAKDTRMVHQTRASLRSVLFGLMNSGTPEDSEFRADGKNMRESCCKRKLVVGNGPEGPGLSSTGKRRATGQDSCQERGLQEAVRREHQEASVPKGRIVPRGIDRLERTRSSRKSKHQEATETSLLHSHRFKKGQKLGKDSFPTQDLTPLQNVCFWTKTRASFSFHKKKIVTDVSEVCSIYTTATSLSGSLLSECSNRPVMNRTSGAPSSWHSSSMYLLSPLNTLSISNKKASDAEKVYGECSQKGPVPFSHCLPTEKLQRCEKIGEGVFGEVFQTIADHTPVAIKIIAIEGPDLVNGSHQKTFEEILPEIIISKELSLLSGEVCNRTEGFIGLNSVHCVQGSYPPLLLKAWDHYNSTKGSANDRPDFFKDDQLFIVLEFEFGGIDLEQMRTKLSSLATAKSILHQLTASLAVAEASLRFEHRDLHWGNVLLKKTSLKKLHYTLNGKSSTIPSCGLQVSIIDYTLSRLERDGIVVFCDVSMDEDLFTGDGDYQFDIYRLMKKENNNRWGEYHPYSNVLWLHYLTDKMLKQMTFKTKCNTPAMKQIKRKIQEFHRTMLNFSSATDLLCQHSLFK

[7] = molecular target: T3, Testis-specific serine/threonine-protein kinase 3 (Homo sapiens) (UniProt Q96PN8); assay: Inhibition of human recombinant TSSK3 at 15 nM related to control ULK1
T3 sequence (whole entry): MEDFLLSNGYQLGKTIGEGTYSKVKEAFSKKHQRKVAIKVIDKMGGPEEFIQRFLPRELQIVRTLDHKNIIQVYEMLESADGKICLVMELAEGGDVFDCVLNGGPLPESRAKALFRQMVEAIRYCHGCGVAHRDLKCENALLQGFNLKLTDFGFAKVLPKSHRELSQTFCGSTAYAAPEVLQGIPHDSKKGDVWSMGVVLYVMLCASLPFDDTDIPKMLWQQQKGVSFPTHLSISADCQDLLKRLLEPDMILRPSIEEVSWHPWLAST

[8] = molecular target: Tyrosine-protein kinase JAK1 (Homo sapiens) (UniProt P23458); assay: Inhibition of human recombinant JAK1 at 15 nM related to control ULK1
[9] = molecular target: Ephrin type-A receptor 4 (Homo sapiens) (UniProt P54764); assay: Inhibition of human recombinant EphA4 at 15 nM in presence of ATP by radiometric assay relative to control
[10] = molecular target: Focal adhesion kinase 1 (Homo sapiens) (UniProt Q05397); assay: Inhibition of human recombinant FAK at 40 nM related to control ULK1
[11] = molecular target: Homeodomain-interacting protein kinase 3 (Homo sapiens) (UniProt Q9H422); assay: Inhibition of human recombinant HIPK3 at 40 nM related to control ULK1
[12] = molecular target: Serine/threonine-protein kinase mTOR (Homo sapiens) (UniProt P42345); assay: Inhibition of human recombinant FRAP at 40 nM related to control ULK1

Chain of Tyrosine-protein kinase Fer (Homo sapiens) (P16591 whole entry, looked up): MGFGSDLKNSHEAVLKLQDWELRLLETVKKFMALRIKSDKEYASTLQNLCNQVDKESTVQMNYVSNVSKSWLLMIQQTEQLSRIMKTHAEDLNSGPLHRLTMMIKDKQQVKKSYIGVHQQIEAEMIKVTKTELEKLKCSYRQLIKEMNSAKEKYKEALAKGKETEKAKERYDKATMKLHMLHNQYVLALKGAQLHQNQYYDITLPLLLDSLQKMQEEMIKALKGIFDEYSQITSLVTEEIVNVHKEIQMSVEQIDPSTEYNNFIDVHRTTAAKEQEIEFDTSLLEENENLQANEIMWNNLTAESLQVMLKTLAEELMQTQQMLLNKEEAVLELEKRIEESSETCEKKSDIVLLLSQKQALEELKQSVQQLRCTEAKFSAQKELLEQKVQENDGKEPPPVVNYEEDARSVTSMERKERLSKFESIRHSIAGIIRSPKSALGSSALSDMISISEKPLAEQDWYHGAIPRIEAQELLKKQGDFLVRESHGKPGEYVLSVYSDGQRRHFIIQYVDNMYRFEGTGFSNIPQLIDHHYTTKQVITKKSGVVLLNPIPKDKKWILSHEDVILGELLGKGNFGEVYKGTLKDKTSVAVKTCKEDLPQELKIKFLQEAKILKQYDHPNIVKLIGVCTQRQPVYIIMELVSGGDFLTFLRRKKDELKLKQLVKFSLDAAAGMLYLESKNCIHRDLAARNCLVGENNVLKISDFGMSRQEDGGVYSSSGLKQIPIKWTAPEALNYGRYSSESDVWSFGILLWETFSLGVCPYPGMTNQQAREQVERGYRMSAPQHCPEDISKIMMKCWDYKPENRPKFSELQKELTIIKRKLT
Chain of Mast/stem cell growth factor receptor Kit (Homo sapiens) (P10721 whole entry): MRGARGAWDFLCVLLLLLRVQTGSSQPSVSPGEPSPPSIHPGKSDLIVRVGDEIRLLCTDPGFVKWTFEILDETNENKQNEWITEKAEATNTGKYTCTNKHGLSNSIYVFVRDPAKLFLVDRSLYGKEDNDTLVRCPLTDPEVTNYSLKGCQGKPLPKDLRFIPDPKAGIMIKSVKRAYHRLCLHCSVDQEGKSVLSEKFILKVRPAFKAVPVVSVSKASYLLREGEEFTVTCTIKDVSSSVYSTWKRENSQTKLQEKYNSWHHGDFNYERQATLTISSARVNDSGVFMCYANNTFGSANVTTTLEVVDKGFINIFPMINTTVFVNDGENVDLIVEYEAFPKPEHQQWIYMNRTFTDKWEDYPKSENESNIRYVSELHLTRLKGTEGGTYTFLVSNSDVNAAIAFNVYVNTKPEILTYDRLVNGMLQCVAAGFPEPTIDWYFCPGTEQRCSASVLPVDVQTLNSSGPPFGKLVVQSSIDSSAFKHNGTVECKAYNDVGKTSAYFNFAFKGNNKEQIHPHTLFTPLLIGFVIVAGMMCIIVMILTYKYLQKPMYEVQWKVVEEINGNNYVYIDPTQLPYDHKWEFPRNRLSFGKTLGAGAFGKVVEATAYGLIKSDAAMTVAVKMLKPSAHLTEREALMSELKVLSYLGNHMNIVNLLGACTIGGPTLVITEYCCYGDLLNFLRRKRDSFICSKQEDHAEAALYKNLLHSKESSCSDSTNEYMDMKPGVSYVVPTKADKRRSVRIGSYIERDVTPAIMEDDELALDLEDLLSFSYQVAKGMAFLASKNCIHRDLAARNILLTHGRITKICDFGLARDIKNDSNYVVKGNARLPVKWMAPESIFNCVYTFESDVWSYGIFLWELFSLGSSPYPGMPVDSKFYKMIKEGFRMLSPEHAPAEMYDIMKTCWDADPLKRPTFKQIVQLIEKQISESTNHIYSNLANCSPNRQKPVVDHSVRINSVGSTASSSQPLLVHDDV
Chain of Focal adhesion kinase 1 (Homo sapiens) (Q05397 2-1052 limits assumed): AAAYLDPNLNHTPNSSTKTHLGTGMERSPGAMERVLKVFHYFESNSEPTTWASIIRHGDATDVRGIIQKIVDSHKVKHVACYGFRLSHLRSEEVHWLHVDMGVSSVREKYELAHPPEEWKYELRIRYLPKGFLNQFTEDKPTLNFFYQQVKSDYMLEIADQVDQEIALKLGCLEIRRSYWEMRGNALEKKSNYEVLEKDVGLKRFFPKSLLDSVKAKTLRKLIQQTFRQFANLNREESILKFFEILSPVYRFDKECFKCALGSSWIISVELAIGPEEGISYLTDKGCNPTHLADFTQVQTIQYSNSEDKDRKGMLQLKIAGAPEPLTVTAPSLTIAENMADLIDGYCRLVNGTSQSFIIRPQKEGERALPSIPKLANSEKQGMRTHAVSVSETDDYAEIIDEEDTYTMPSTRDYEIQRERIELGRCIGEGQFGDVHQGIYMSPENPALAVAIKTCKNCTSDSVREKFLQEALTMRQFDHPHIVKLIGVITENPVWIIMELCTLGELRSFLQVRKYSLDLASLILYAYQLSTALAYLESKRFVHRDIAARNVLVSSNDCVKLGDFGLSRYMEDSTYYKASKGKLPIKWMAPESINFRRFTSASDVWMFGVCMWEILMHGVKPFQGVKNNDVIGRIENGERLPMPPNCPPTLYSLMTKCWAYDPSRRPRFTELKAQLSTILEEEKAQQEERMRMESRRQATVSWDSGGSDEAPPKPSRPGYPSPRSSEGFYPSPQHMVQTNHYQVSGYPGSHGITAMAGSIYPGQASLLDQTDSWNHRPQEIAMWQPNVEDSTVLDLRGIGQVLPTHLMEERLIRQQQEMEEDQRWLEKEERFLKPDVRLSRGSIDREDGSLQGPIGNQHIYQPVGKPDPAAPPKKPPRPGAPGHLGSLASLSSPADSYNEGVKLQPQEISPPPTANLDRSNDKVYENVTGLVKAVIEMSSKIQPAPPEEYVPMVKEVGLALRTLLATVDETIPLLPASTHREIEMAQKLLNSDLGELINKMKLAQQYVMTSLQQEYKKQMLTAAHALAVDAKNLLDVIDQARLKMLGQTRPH
Chain of Ephrin type-A receptor 4 (Homo sapiens) (P54764 whole entry): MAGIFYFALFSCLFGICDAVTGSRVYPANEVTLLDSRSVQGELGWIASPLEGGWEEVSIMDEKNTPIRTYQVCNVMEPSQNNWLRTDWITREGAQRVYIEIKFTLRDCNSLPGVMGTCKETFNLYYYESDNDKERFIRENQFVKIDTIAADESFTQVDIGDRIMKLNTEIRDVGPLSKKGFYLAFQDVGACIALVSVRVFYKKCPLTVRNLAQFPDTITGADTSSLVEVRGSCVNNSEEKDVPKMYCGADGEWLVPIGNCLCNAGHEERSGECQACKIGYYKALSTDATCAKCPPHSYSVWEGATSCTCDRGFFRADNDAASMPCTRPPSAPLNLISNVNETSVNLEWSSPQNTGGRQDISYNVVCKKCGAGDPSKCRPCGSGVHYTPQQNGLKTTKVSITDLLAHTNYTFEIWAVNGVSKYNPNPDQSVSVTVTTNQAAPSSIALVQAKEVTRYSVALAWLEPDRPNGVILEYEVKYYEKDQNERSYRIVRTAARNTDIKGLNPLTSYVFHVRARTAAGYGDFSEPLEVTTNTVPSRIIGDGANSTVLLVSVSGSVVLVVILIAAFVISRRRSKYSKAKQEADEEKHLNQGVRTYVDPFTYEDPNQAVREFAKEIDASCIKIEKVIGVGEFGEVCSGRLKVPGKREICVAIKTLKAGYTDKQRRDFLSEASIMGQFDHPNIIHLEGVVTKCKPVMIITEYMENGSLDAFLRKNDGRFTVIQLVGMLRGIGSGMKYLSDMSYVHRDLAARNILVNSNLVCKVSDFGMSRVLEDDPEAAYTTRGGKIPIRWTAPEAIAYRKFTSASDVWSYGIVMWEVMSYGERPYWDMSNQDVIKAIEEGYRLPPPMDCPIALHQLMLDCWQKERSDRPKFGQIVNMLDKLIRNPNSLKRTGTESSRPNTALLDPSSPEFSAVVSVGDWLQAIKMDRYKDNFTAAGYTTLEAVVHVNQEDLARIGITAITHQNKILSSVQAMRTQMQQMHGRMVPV
Chain of Cell division cycle 7-related protein kinase (Homo sapiens) (O00311 whole entry, looked up): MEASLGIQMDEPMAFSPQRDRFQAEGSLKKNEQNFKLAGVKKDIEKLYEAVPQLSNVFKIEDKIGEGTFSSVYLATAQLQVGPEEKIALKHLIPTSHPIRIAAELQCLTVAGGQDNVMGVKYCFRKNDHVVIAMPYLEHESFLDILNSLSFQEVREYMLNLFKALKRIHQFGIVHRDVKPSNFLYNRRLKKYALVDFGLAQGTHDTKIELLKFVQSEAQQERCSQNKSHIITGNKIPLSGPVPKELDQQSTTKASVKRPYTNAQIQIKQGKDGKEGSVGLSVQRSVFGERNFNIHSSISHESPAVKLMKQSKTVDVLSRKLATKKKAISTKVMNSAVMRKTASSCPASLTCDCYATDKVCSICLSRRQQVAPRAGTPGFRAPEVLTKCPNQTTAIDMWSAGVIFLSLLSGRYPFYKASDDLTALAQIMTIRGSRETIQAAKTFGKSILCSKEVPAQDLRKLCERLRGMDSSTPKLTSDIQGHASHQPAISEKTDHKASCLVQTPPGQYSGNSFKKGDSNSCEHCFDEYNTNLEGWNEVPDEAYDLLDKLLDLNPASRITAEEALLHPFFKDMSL
Chain of SRSF protein kinase 1 (Homo sapiens) (Q96SB4 whole entry): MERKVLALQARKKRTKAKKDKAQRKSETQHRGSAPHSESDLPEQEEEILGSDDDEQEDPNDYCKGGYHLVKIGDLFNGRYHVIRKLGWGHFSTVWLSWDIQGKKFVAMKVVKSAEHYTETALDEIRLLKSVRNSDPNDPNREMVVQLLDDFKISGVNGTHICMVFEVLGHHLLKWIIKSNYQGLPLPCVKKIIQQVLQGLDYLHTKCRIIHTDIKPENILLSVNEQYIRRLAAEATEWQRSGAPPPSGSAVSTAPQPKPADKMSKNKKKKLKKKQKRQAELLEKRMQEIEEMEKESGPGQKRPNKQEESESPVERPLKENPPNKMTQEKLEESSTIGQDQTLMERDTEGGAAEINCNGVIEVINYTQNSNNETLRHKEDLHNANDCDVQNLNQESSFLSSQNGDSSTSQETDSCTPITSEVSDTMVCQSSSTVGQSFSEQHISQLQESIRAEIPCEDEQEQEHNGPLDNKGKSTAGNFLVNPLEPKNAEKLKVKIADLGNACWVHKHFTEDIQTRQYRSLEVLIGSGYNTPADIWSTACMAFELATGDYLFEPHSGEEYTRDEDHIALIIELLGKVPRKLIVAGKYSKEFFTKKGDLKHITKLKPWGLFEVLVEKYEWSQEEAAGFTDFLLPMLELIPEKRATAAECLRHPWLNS

inhibition [1]: 8% | fold change (FC) [2]: 0 | fold change (FC) [3]: 0.14 | fold change (FC) [4]: 0 | inhibition [5]: 1%
Structure (SMILES): CNC(=O)c1ccccc1Oc1nc(Nc2cc(OC)c(OC)c(OC)c2)ncc1Br

fold change (FC) [6]: 0 | fold change (FC) [7]: 0.16 | fold change (FC) [8]: 0 | inhibition [9]: 0%
Structure (SMILES): CC(C)[C@H](NC(=O)c1cc(-c2cnn3cc(-c4ccc(OCCN5CCCCC5)cc4)cnc23)cs1)C(F)(F)F

fold change (FC) [10]: 0 | fold change (FC) [11]: 0.07 | fold change (FC) [12]: 0
Structure (SMILES): O=C(N[C@@H](C1CC1)C(F)(F)F)c1cc(-c2cnn3cc(-c4ccc(F)cc4)cnc23)cs1
